± gives the standard deviation of the averaged measurements.
Legend:
Assay in all cases: cell viability, percent of DMSO control (CellTiter-Glo); higher = more viable cells
Details in all cases: 72 h
[1] = test system: DFTD cell line T1 (06/2887)
Experimental: (§1)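 Eight-point dose titration of 41 screen hits in triplicate wells on four Tasmanian devil DFTD tumour cell lines (T1-T4) and devil fibroblasts, 384-well plates. Viability was read by CellTiter-Glo (ATP) after 72 h at 37 °C. Percent of control per plate: DMSO wells = 100%, positive-control wells = 0%.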

[2] = test system: DFTD cell line T4 (07/0192)
Experimental: as §1

[3] = test system: DFTD cell line T2 (05/2569)
Experimental: as §1

[4] = test system: DFTD cell line T3 (06/0368)
Experimental: as §1

Row | Compound | cell viability ([1]; 0.00617 µM) [%] | cell viability ([1]; 0.0185 µM) [%] | cell viability ([1]; 0.0556 µM) [%] | cell viability ([1]; 0.166667 µM) [%] | cell viability ([1]; 0.5 µM) [%] | cell viability ([1]; 1.5 µM) [%] | cell viability ([1]; 4.5 µM) [%] | cell viability ([1]; 13.5 µM) [%] | cell viability ([2]; 0.00617 µM) [%] | cell viability ([2]; 0.0185 µM) [%] | cell viability ([2]; 0.0556 µM) [%] | cell viability ([2]; 0.166667 µM) [%] | cell viability ([2]; 0.5 µM) [%] | cell viability ([2]; 1.5 µM) [%] | cell viability ([2]; 4.5 µM) [%] | cell viability ([2]; 13.5 µM) [%] | cell viability ([3]; 0.00617 µM) [%] | cell viability ([3]; 0.0185 µM) [%] | cell viability ([3]; 0.0556 µM) [%] | cell viability ([3]; 0.166667 µM) [%] | cell viability ([3]; 0.5 µM) [%] | cell viability ([3]; 1.5 µM) [%] | cell viability ([3]; 4.5 µM) [%] | cell viability ([3]; 13.5 µM) [%] | cell viability ([4]; 0.00617 µM) [%] | cell viability ([4]; 0.0185 µM) [%] | cell viability ([4]; 0.0556 µM) [%] | cell viability ([4]; 0.166667 µM) [%] | cell viability ([4]; 0.5 µM) [%] | cell viability ([4]; 1.5 µM) [%] | cell viability ([4]; 4.5 µM) [%] | cell viability ([4]; 13.5 µM) [%]
1 | COc1cccc2c1C(=O)c1c(O)c3c(c(O)c1C2=O)C[C@@](O)(C(=O)CO)C[C@@H]3O[C@H]1C[C@H](N)[C@@H](O)[C@H](C)O1.Cl | 127 ± 20 | 96.8 ± 35 | 94.5 ± 5 | 66.7 ± 14 | 60.6 ± 6.7 | -2.32 ± 3.8 | -3.85 ± 4.9 | -11.8 ± 0.8 | 118 ± 30 | 97.7 ± 28 | 89.8 ± 12 | 67.5 ± 13 | 57.2 ± 10 | -4.01 ± 4.5 | -5.27 ± 1.6 | -4.94 ± 4.3 | 116 ± 3.2 | 105 ± 38 | 107 ± 8.6 | 79.4 ± 6.3 | 68.9 ± 3.2 | 22.8 ± 5 | -4.77 ± 4 | -10.2 ± 3.1 | 124 ± 11 | 110 ± 44 | 96.2 ± 12 | 81.9 ± 18 | 63.8 ± 6.6 | 19.3 ± 3.4 | 5.78 ± 4.9 | -4.2 ± 4.2
2 | COc1cccc2c1C(=O)c1c(O)c3c(c(O)c1C2=O)C[C@@](O)(C(=O)CO)C[C@@H]3O[C@H]1C[C@H](N)[C@H](O)[C@H](C)O1.Cl | 106 ± 19 | 112 ± 28 | 94.2 ± 8.7 | 95.5 ± 18 | 61.2 ± 8.2 | 32.2 ± 2.5 | 1.1 ± 6.5 | -3.65 ± 5 | 110 ± 16 | 98 ± 4.9 | 89.9 ± 30 | 91.9 ± 4.3 | 43.8 ± 15 | 24.2 ± 7 | -1.02 ± 1.8 | 1.84 ± 5.4 | 118 ± 33 | 107 ± 14 | 90.9 ± 19 | 97.9 ± 18 | 60.3 ± 14 | 33.7 ± 8.7 | -0.292 ± 4.4 | -2.07 ± 4.8 | 101 ± 18 | 102 ± 5.6 | 97.9 ± 17 | 95.8 ± 19 | 60.3 ± 11 | 45 ± 4.4 | 1.01 ± 0.94 | 2.64 ± 8.3
3 | COc1cc2ncnc(Nc3ccc(F)c(Cl)c3)c2cc1NC(=O)/C=C/CN1CCCCC1 | 97.4 ± 26 | 108 ± 39 | 94.3 ± 19 | 58.2 ± 6.1 | 36.2 ± 4 | 27.5 ± 6.9 | 30.8 ± 20 | 19.8 ± 14 | 107 ± 7.5 | 96.2 ± 33 | 88 ± 13 | 77.2 ± 1.9 | 25 ± 6.3 | 26.5 ± 3.8 | 11.7 ± 14 | -11.1 ± 6 | 112 ± 30 | 95.2 ± 46 | 106 ± 12 | 90.6 ± 2.5 | 81.1 ± 22 | 51 ± 8.7 | 49.8 ± 13 | 50.5 ± 13 | 108 ± 16 | 97.5 ± 14 | 91.6 ± 18 | 77.7 ± 1.5 | 39.7 ± 5.3 | 38.3 ± 3.5 | 27.9 ± 7 | -10.9 ± 5.5
4 | CS(=O)(=O)CCNCc1ccc(-c2ccc3ncnc(Nc4ccc(OCc5cccc(F)c5)c(Cl)c4)c3c2)o1.Cc1ccc(S(=O)(=O)O)cc1 | 127 ± 30 | 119 ± 34 | 87.5 ± 10 | 102 ± 13 | 46.3 ± 14 | 28.1 ± 1.4 | 24 ± 4.6 | 31.8 ± 14 | 102 ± 3.8 | 123 ± 22 | 101 ± 20 | 91.8 ± 9.4 | 62.7 ± 8.4 | 46.1 ± 8 | 22.1 ± 4.5 | 28.7 ± 14 | 109 ± 37 | 114 ± 20 | 98.2 ± 27 | 117 ± 23 | 83.3 ± 12 | 44.3 ± 7.7 | 35.8 ± 6.4 | 32.3 ± 14 | 96 ± 14 | 105 ± 4.2 | 99.2 ± 22 | 97.4 ± 13 | 63 ± 14 | 54.1 ± 6 | 42.2 ± 2.4 | 40.8 ± 22
